Test results: patent US6818203B2, “Use of perfluoroalkyl-containing metal complexes as contrast media in MR-imaging for visualization of plaque, tumors and necroses” (Schering Aktiengesellschaft, priority 2000, dated 2004)

Legend:
[1] = organ distribution (including lymph node concentration) after intravenous administration in rats; assay type: in vivo; conditions: 24 hours after administration, 100 μmol Gd/kg i.v.
Description: (§1) After intravenous administration of 100 μmol of total gadolinium/kg of body weight of a polar Gd-chelate with perfluorinated side chains (metal complex X) in rats, the metal content in various organs as well as in the lymph nodes (pooled as mesenteric and peripheral lymph nodes) was determined 24 hours after administration (MW, n=2).
as §1, with “200” for “100”, “V)” for “X)”
as §1, with “200” for “100”, “III)” for “X)”

[2] = tested on: primary tumor (VX2-tumor implanted i.m.); test: tumor visualization (MRT) after intravenous administration in VX2-tumor-bearing rabbits; assay type: in vivo; conditions: 200 μmol of Gd/kg i.v.
Description: The pictures of FIG. 6 show MR images of an iliac lymph node and of a primary tumor (VX2-tumor implanted i.m.) precontrast, 60 minutes and 20 hours after intravenous administration of 100 μmol of Gd/kg of body weight of metal complex I in rabbits. […]

[3] = hydrodynamic micelle diameter (2 Rh) by photon correlation spectroscopy (PCS); assay type: physicochemical
Summary of the method: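 Aggregate size measured as hydrodynamic diameter (2 Rh) of the amphiphilic compounds in solution by photon correlation spectroscopy.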

iliac lymph nodes [4] = test: lymph node visualization (MRT) after intravenous administration in rats; assay type: in vivo; conditions: 100 μmol of Gd/kg i.v.
Description: (§2) By way of example, the pictures in FIG. 8 show MR images of iliac lymph nodes precontrast and up to 60 minutes after intravenous administration of 100 μmol of Gd/kg of body weight of metal complex X in rats. […] The enhancement was thus 263% at the time of 15 minutes p.i. and 254% at the time of 60 minutes p.i.
as §2, with “11” for “8”, “200” for “100”, “V” for “X”, “147%” for “263%”, “230%” for “254%”
as §2, with “17” for “8”, “200” for “100”, “III” for “X”, “320%” for “263%”, “401%” for “254%”

iliac lymph nodes [5] = test: lymph node visualization (MRT) after intravenous administration in VX2-tumor-bearing rabbits; assay type: in vivo; conditions: 200 μmol of Gd/kg i.v.
Description: The pictures of FIG. 6 show MR images of an iliac lymph node and of a primary tumor (VX2-tumor implanted i.m.) precontrast, 60 minutes and 20 hours after intravenous administration of 100 μmol of Gd/kg of body weight of metal complex I in rabbits. […] The enhancement in the healthy lymph node tissue was 382% at the time of 15 minutes p.i. and 419% at the time of 60 minutes p.i. […] The ratio of signal intensities of healthy lymph node tissue to metastasis was 3.0 at the time of 15 minutes p.i. and 3.4 at the time of 60 minutes p.i. […] The enhancement in the healthy lymph node tissue was 246% at the time of 15 minutes p.i. and 282% at the time of 60 minutes p.i. […] The ratio of signal intensities of healthy lymph node tissue to metastasis was 2.5 at the time of 15 minutes p.i. and 1.7 at the time of 60 minutes p.i. […] The enhancement in the healthy lymph node tissue was 297% at the time of 10 minutes p.i. and 269% at the time of 60 minutes p.i. […] The ratio of signal intensities of healthy lymph node tissue to metastasis was 5.1 at the time of 10 minutes p.i. and 1.9 at the time of 60 minutes p.i. […] The enhancement in the healthy lymph node tissue was 195% at the time of 15 minutes p.i. and 233% at the time of 60 minutes p.i. […] The ratio of signal intensities of healthy lymph node tissue to metastasis was 1.9 at the time of 15 minutes p.i. and 1.8 at the time of 60 minutes p.i.

In the case of `COCCN(CCOCCC(F)(F)C(F)(F)C(F)(F)C(F)(F)C(F)(F)C(F)(F)C(F)(F)C(F)(F)F)C(=O)CNC(=O)C(C)N1CCN(CC(=O)[O-])CCN(CC(=O)[O-])CCN(CC(=O)[O-])CC1.[Gd+3]` (stereo not shown) [metal complex X], the metal content ([1]; Blood) was 1 μmol Gd/L, the “metal content, % Dose” value ([1]; Blood) was 0.01 % Dose and the metal content ([1]; Brain) was 1 μmol Gd/L. For the same compound, the “metal content, % Dose” value ([1]; Brain) was 0.01 % Dose, the metal content ([1]; Carcass) was 192 μmol Gd/L and the “metal content, % Dose” value ([1]; Carcass) was 34.01 % Dose. The metal content ([1]; Femur) was 3 μmol Gd/L, the “metal content, % Dose” value ([1]; Femur) was 0.01 % Dose and the metal content ([1]; Heart) was 3 μmol Gd/L. For the same compound, the “metal content, % Dose” value ([1]; Heart) was 0.01 % Dose, the metal content ([1]; Intestine) was 65 μmol Gd/L and the “metal content, % Dose” value ([1]; Intestine) was 1.22 % Dose. The metal content ([1]; Kidneys) was 150 μmol Gd/L, the “metal content, % Dose” value ([1]; Kidneys) was 0.65 % Dose and the metal content ([1]; Liver) was 104 μmol Gd/L. For the same compound, the “metal content, % Dose” value ([1]; Liver) was 2.34 % Dose, the metal content ([1]; Lung) was 18 μmol Gd/L and the “metal content, % Dose” value ([1]; Lung) was 0.05 % Dose. For the same compound, the metal content ([1]; Mesenteric lymph nodes) was 19 μmol Gd/L, the “metal content, % Dose” value ([1]; Mesenteric lymph nodes) was 0.01 % Dose and the metal content ([1]; Muscle) was 1 μmol Gd/L. The “metal content, % Dose” value ([1]; Muscle) was 0.00 % Dose, the metal content ([1]; Pancreas) was 6 μmol Gd/L and the “metal content, % Dose” value ([1]; Pancreas) was 0.02 % Dose. For the same compound, the metal content ([1]; Peripheral lymph nodes) was 11 μmol Gd/L, the “metal content, % Dose” value ([1]; Peripheral lymph nodes) was 0.01 % Dose and the metal content ([1]; Spleen) was 54 μmol Gd/L. For the same compound, the “metal content, % Dose” value ([1]; Spleen) was 0.07 % Dose, the metal content ([1]; Stomach) was 49 μmol Gd/L and the “metal content, % Dose” value ([1]; Stomach) was 0.18 % Dose. For the same compound, the “metal content, % Dose” value ([1]; Total) was 38.58 % Dose, the “enhancement of the primary tumor (especially the periphery)” value ([2]; 15 minutes p.i.) was 277% and the “enhancement of the primary tumor (center of the tumor)” value ([2]; 24 hours p.i.) was 217%. The “2 Rh (hydrodynamic micelle diameter)” value [3] was 5.4 nm, the “enhancement in lymph node tissue” value (iliac lymph nodes [4]; 15 minutes p.i.) was 263% and the “enhancement in lymph node tissue” value (iliac lymph nodes [4]; 60 minutes p.i.) was 254%. For the same compound, the “signal in healthy lymph node tissue (T1-weighted gradient-echo images)” value (iliac lymph nodes [4]; very shortly after injection) was “strong signal rise”, the “signal in healthy lymph node tissue (T1-weighted gradient-echo images)” value (iliac lymph nodes [5]) was “strong signal rise” and the “enhancement in the healthy lymph node tissue” value (iliac lymph nodes [5]; 15 minutes p.i.) was 382%. The “ratio of signal intensities of healthy lymph node tissue to metastasis” value (iliac lymph nodes [5]; 15 minutes p.i.) was 3.0, the “enhancement in the healthy lymph node tissue” value (iliac lymph nodes [5]; 60 minutes p.i.) was 419% and the “ratio of signal intensities of healthy lymph node tissue to metastasis” value (iliac lymph nodes [5]; 60 minutes p.i.) was 3.4. The “signal in zones within the lymph node diagnosed as metastases (confirmed histologically)” value (iliac lymph nodes [5]; early images) was “without signal rise”.
